Experimental data as given in patent EP4488270A1, “TRIAZOLE COMPOUNDS FOR THE CONTROL OF INVERTEBRATE PESTS” (priority 2023, dated 2025).

Key:
Type in all cases: in vivo
[1] = tested on: green peach aphid (Myzus persicae); assay: Green peach aphid systemic test, artificial diet under membrane in 96-well microtiter plates; conditions: 72 h, adult aphids on treated diet, 3 days, about 23 ± 1°C, read-out: mortality in comparison with untreated controls
From the text: B.1 Green Peach Aphid (Myzus persicae)
For evaluating control of green peach aphid (Myzus persicae) through systemic means, the test unit consisted of 96-well-microtiter plates containing liquid artificial diet under an artificial mem brane.
The compounds were formulated using a solution containing 75% v/v water and 25% v/v DMSO. Different concentrations of formulated compounds were pipetted into the aphid diet, using a custom built pipetter, at two replications.
After application, 5 - 8 adult aphids were placed on the artificial membrane inside the microtiter plate wells. The aphids were then allowed to suck on the treated aphid diet and incubated at about 23 ± 1°C and about 50 ± 5 % relative humidity for 3 days. Aphid mortality and fecundity was then visually assessed.

[2] = tested on: tobacco budworm (Heliothis virescens); assay: Tobacco budworm test, insect diet with eggs in 96-well microtiter plates; conditions: 120 h, egg and larval mortality, 5 days, about 28 ± 1°C, read-out: mortality in comparison with untreated controls
Protocol: B.2 Tobacco budworm (Heliothis virescens)
For evaluating control of tobacco budworm (Heliothis virescens), the test unit consisted of 96-well-microtiter plates containing an insect diet and 15-25 H. virescens eggs.
The compounds were formulated using a solution containing 75% v/v water and 25% v/v DMSO. Different concentrations of formulated compounds were sprayed onto the insect diet at 10µl, using a custom-built micro atomizer, at two replications.
After application, microtiter plates were incubated at about 28 ± 1°C and about 80 ± 5 % relative humidity for 5 days. Egg and larval mortality was then visually assessed.

[3] = tested on: boll weevil (Anthonomus grandis); assay: Boll weevil test, insect diet with eggs in 96-well microtiter plates; conditions: 120 h, read-out: mortality in comparison with untreated controls
Protocol: B.3 Boll weevil (Anthonomus grandis)
For evaluating control of boll weevil (Anthonomus grandis), the test unit consisted of 96-well-microtiter plates containing an insect diet and 5-10 A. grandis eggs.
The compounds were formulated using a solution containing 75% v/v water and 25% v/v DMSO. Different concentrations of formulated compounds were sprayed onto the insect diet at 5µl, using a custom-built micro atomizer, at two replications.
After application, microtiter plates were incubated at about 25 ± 1°C and about 75 ± 5 % relative humidity for 5 days. Egg and larval mortality was then visually assessed.

[4] = tested on: Southern armyworm (Spodoptera eridania), 2nd instar larvae; assay: Southern armyworm foliar spray test on lima bean plants; conditions: 96 h, 4 days after treatment, read-out: mortality in comparison with untreated controls
Protocol: B.4. Southern armyworm (Spodoptera eridania), 2nd instar larvae
The active compounds were formulated by a Tecan liquid handler in 100% cyclohexanone as a 10,000-ppm solution supplied in tubes. The 10,000-ppm solution was serially diluted in 100% cyclohexanone to make interim solutions. These served as stock solutions for which final dilutions were made by the Tecan in 50% acetone:50% water (v/v) into 10 or 20ml glass vials. A non-ionic surfactant (Kinetic®) was included in the solution at a volume of 0.01% (v/v). The vials were then inserted into an automated electrostatic sprayer equipped with an atomizing nozzle for application to plants/insects. Lima bean plants (variety Sieva) were grown 2 plants to a pot and selected for treatment at the 1st true leaf stage. Test solutions were sprayed onto the foliage by an automated electrostatic plant sprayer equipped with an atomizing spray nozzle. The plants were dried in the sprayer fume hood and then removed from the sprayer. Each pot was placed into perforated plastic bags with a zip closure. Ten to 11 armyworm larvae were placed into the bag and the bags zipped closed. […] Mortality and reduced feeding were assessed 4 days after treatment, compared to untreated control plants.

[5] = tested on: yellow fever mosquito (Aedes aegypti); assay: whole plant or invertebrate; conditions: 48 h, larval mortality, 2 days, 28 ± 1°C, read-out: mortality in comparison with untreated controls
Protocol: B.5 Yellow fever mosquito (Aedes aegypti)
For evaluating control of yellow fever mosquito (Aedes aegypti) the test unit consisted of 96-well-microtiter plates containing 200µl of tap water per well and 5-15 freshly hatched A. aegypti larvae.
The active compounds were formulated using a solution containing 75% (v/v) water and 25% (v/v) DMSO. Different concentrations of formulated compounds or mixtures were sprayed onto the insect diet at 2.5µl, using a custom-built micro atomizer, at two replications.
After application, microtiter plates were incubated at 28 ± 1°C, 80 ± 5 % RH for 2 days. Larval mortality was then visually assessed.

[6] = tested on: Orchid thrips (Dichromothrips corbetti); assay: Orchid thrips floral-immersion test; conditions: adult thrips on dipped orchid petals, 72 hours after treatment, read-out: mortality in comparison with untreated controls
Protocol: B.6 Orchid thrips (Dichromothrips corbetti)
Dichromothrips corbetti adults used for bioassay are obtained from a colony maintained continuously under laboratory conditions. For testing purposes, the test compound is diluted in a 1:1 mixture of acetone:water (vol:vol), plus Kinetic at a rate of 0.01% v/v.
Thrips potency of each compound is evaluated by using a floral-immersion technique. Each orchid petal is dipped into treatment solution and allowed to dry in Petri dishes. Treated petals are placed into individual re-sealable plastic along with about 20 adult thrips. All test arenas are held under dark condition and a temperature of about 28°C for duration of the assay. The percent mortality is recorded 72 hours after treatment.

CC(NC(=O)c1cc(C(F)(F)F)cc(C(F)(F)F)c1)c1nccnc1-c1ncn(C2(C#N)CC2)n1 (stereo not drawn) [I-3, N-[1-[3-[1-(1-cyanocyclopropyl)-1,2,4-triazol-3-yl]pyrazin-2-yl]ethyl]-3,5-bis(trifluoromethyl)benzamide]
≥ 75%: mortality at 2500 ppm [1] | mortality at 2500 ppm [2] | mortality at 2500 ppm [3] | mortality at 300 ppm [4] | mortality at 2500 ppm [5] | mortality at 300 ppm [6]

CC(NC(=O)c1cc(C(F)(F)F)cc(C(F)(F)F)c1)c1nccnc1-c1ncn(C2(C(N)=O)CC2)n1 (stereo not drawn) [I-2, N-[1-[3-[1-(1-carbamoylcyclopropyl)-1,2,4-triazol-3-yl]pyrazin-2-yl]ethyl]-3,5-bis(trifluoromethyl)benzamide]
≥ 75%: mortality at 2500 ppm [1] | mortality at 2500 ppm [2] | mortality at 2500 ppm [3] | mortality at 300 ppm [4] | mortality at 2500 ppm [5] | mortality at 300 ppm [6]
